Assay results reported in patent US5736568A, “2-(aminoalkoxy) phenylalkylamines with antiinflammatory activity” (Knoll Aktiengesellschaft, priority 1994, dated 1998).

Columns and labels:
[1] = system: carrageenan-induced paw oedema; experiment: Test B: Carrageenan-induced rat paw oedema test; type: in vivo; settings: inhibition of paw oedema, 100 mg/kg oral, 3 h after carrageenan
Method: Test B was carried out in the following way:
Carrageenan-induced rat paw oedema test
Female rats, weight range 125-150 g were fasted overnight. One of the hind legs of each animal was marked with a line at the connection between the cuboid/navicular and calcaneus/talus bones. Groups of six rats were orally dosed at 10 ml/kg, in random order, with a given dose of the test compound given as a solution or suspension in 10% (w/v) aqueous acacia solution.
One hour after dosing, 0.1 ml of 1% (w/v) sterile carrageenan λ in normal saline was injected deeply into the plantar surface of the marked hind foot of each rat. The volume of the foot (up to the marked line) was measured immediately after injection using duplicate water displacement readings. Three hours after injection the foot volume was measured again and the percentage increase in foot volume relative to the initial reading was calculated.
The increase in foot volume (i.e. the degree of oedema) in drug treated animals when compared with that in the drug untreated control gave the degree of inhibition of paw oedema by the drug.
Compounds were considered to be active in this test if they produced a statistically significant (typically 20% or greater) inhibition of paw oedema in at least two out of three tests after oral dosing at 100 mg/kg. Statistical significance was assessed using the Student's t test for single dose studies and Dunnett's test for multiple dose studies. More advantageous compounds were active in both Tests A and B,

[2] = system: arachidonic acid release from zymosan stimulated macrophages; experiment: Test A: Inhibition of Arachidonic Acid Release from Zymosan Stimulated Macrophages; type: cell-based, mice (female MF1); settings: Mus musculus, Macrophage; peritoneal macrophages labelled with [3H]-arachidonic acid, zymosan stimulus, 5 h; tested at 100, 50, 20, 10, 5 and 1 μM
Method: Test A was carried out in the following way:
Inhibition of Arachidonic Acid Release from Zymosan Stimulated Macrophages
Female MF1 mice (weighing 20 to 25 g) were killed using a rising concentration of CO2. The mice were laid on their backs and the abdomens wiped with 70% alcohol. The skin was pulled back, exposing the peritoneal wall. Medium A (5 ml) (see below) was injected into the peritoneal cavity of each mouse followed by approximately 1 ml of air using a 20 ml syringe and a 21 G×40 mm needle in order to form a suspension of macrophage cells. The medium and cells were then removed using a 19 G×40 mm needle. The resulting suspension was returned to a sterile beaker kept on ice. The extracts from all the mice were pooled and this pooled cell suspension was counted using a Coulter counter and adjusted to a final cell count of 1-1.3×10^6 cells/ml prior to labelling with [^3 H]-arachidonic acid. Typically five mice provided sufficient cells for each multiwell plate.
Sufficient [^3 H]-arachidonic acid in ethanol to give a final concentration of 1.6 μCi/ml (equivalent to 40 μCi/plate) was blown to dryness under nitrogen. The arachidonic acid was then resuspended in 1 or 2 ml of the cell suspension which was then mixed with the remainder of the cell suspension in a centrifuge bottle.
The following day, non-adherent cells were removed by washing 3 times with sterile phosphate buffered saline (PBS). The adherent peritoneal macrophages were then cultured for a further 24 hours in the presence or absence of drugs, in medium B (see below) at 37° in a 5% CO2 atmosphere in order to measure the effects of drugs on the spontaneous release of arachidonic acid in the absence of stimulus. After this incubation, supernatants were removed to give medium 1 and stored in sealed multi-well plates at 4° C. prior to scintillation counting. […] The supernatants were replaced by fresh medium C containing fresh drug and a stimulus. Three drugs were tested at six concentrations (100, 50, 20, 10, 5 and 1 μM) in replicates of four on each plate. The other wells contained controls consisting of a positive control (e.g. dexamethasone), medium (B) only and medium C only.
Incubation was then continued for a further 5 hours, whereupon the supernatants were collected to give medium 2 and the adherent cells washed with PBS. The cells were then lysed with 100 μl of 0.1% TRITON® X100 in a 0.1% solution of bovine serum albumin in 0.9% saline and mechanically disrupted to give cell lysates. These supernatants (medium 2) and cell lysates (Cells) were also stored in sealed multi-well plates at 4° C. prior to scintillation counting. 200 μl aliquots of media, or 100 μl aliquots of cells were counted using 2 ml of OPTIPHASE "HIGH SAFE" (Trademark of LKB) as scintillant.
The percentage of arachidonic acid released was calculated using the mean values for each group of 4 wells in the following equation. [formula]
The percentage inhibition of arachidonic acid release caused by a drug may then be calculated using the following equation. [formula]
Medium A (for peritoneal lavage)
This mixture was transferred to sterile flask and made up to 400 ml with sterile water.
Medium B (for cell culture)
This mixture was transferred to a sterile beaker and made up to 650 ml with sterile water.
Medium C=medium B+stimulant (zymosan)
The zymosan stimulant was prepared as follows:--zymosan (200 mg) (supplied by Sigma) was added to PBS (20 ml). The mixture was boiled for 30 minutes and the volume restored to 20 ml with water. The zymosan was harvested by centrifugation at 500×g for 5 minutes, washed twice by resuspension in PBS (10 ml) and centrifugation. After the final separation, the zymosan was resuspended in 20 ml PBS and stored as 1 ml aliquots at -20° C.

[3] = system: carrageenan-induced pleurisy; experiment: Test C: Carrageenan-induced pleurisy in rats; type: in vivo, rat; settings: 24 h and 48 h, leukocytes harvested at 72 h; for activity in Test C at 30 mg/kg: 30 mg/kg p.o. at challenge; for activity in Test C at 10 mg/kg or less: 10 mg/kg or less p.o. at challenge
Method: The most advantageous compounds of formula I were active in Test A and also in the following test. Carrageenan-induced pleurisy in rats was carried out as described by Ackerman et al. J. Pharmacol. Exp. Therap. 1980, 215, 588-595. Migrating leukocytes were harvested by lavage of the thoracic cavity 72 h after injection of 0.3 ml 1% λ-carrageenan in sterile isotonic saline. Test compounds were administered p.o. at the time of challenge and 24 h and 48 h thereafter.

Compound: CN(CCOc1ccc(Cl)cc1CN1CCCCC1)Cc1ccccc1 [Example 11, N-Benzyl-2-[4-chloro-2-(piperidinomethyl)phenoxy]-N-methylethylamine]
- inhibition at 100 mg/kg [1]: 47%
- IC50 [2]: 10 µM
- activity in Test C at 30 mg/kg [3]: active

Compound: CN(C)Cc1cc(Cl)ccc1OCCCN(C)Cc1ccccc1 [Example 12, 2-[3-(N-Benzyl-N-methylamino)propoxy]-5-chloro-N,N-dimethylbenzylamine]
- inhibition at 100 mg/kg [1]: 68%
- IC50 [2]: 8 µM
- activity in Test C at 30 mg/kg [3]: active

Compound: CN(C)Cc1c(OCCN(C)Cc2ccccc2)ccc(Cl)c1Cl [Example 13, 2-[2-(N-Benzyl-N-methylamino)ethoxy]-5,6-dichloro-N,N-dimethylbenzylamine]
- inhibition at 100 mg/kg [1]: 70%
- IC50 [2]: 8 µM
- activity in Test C at 30 mg/kg [3]: active

Compound: CN(C)Cc1ccccc1OCCN(C)Cc1ccc(Cl)cc1 [Example 17, 2-{2-[N-(4-Chlorobenzyl)-N-methylamino]ethoxy}-N,N-dimethylbenzylamine]
- inhibition at 100 mg/kg [1]: 36%
- IC50 [2]: 13 µM
- activity in Test C at 10 mg/kg or less [3]: active

Compound: CN(C)Cc1ccccc1OCCN(C)Cc1ccccc1 [Example 20, 2-[2-(N-Benzyl-N-methylamino)ethoxy]-N,N-dimethylbenzylamine]
- inhibition at 100 mg/kg [1]: 64%
- IC50 [2]: 36 µM
- activity in Test C at 30 mg/kg [3]: active

Compound: CN(C)Cc1cc(Cl)ccc1OCCN(C)Cc1ccccc1 [Example 21, 2-[2-(N-Benzyl-N-methylamino)ethoxy]-5-chloro-N,N-dimethylbenzylamine]
- inhibition at 100 mg/kg [1]: 31%
- IC50 [2]: 22 µM
- activity in Test C at 10 mg/kg or less [3]: active

Compound: CN(C)CCOc1ccc(Cl)cc1CN(C)C [Example 22, 5-Chloro-2-(2-dimethylaminoethoxy)-N,N-dimethylbenzylamine]
- inhibition at 100 mg/kg [1]: 26%
- IC50 [2]: 14 µM
- activity in Test C at 30 mg/kg [3]: active
